Measured values published in patent publication US10633338B2, “Binding Function 3 (BF3) site compounds as therapeutics and methods for their use” (THE UNIVERSITY OF BRITISH COLUMBIA, priority 2014, dated 2020).
Where two headings read alike, the source gives them in different places.

Experiments:
androgen receptor (AR) = target: T1, androgen receptor (AR) (Homo sapiens, UniProt P10275, T878A); assay: eGFP cellular AR transcription assay; assay type: cell-based
T1 construct: stably transfected eGFP-expressing LNCaP human prostate cancer cells (LN-ARR2PB-eGFP) containing an androgen responsive probasin-derived promoter; endogenous in cells; host or cells: LNCaP (LN-ARR2PB-eGFP)
T1 sequence (P10275 1-920 T878A): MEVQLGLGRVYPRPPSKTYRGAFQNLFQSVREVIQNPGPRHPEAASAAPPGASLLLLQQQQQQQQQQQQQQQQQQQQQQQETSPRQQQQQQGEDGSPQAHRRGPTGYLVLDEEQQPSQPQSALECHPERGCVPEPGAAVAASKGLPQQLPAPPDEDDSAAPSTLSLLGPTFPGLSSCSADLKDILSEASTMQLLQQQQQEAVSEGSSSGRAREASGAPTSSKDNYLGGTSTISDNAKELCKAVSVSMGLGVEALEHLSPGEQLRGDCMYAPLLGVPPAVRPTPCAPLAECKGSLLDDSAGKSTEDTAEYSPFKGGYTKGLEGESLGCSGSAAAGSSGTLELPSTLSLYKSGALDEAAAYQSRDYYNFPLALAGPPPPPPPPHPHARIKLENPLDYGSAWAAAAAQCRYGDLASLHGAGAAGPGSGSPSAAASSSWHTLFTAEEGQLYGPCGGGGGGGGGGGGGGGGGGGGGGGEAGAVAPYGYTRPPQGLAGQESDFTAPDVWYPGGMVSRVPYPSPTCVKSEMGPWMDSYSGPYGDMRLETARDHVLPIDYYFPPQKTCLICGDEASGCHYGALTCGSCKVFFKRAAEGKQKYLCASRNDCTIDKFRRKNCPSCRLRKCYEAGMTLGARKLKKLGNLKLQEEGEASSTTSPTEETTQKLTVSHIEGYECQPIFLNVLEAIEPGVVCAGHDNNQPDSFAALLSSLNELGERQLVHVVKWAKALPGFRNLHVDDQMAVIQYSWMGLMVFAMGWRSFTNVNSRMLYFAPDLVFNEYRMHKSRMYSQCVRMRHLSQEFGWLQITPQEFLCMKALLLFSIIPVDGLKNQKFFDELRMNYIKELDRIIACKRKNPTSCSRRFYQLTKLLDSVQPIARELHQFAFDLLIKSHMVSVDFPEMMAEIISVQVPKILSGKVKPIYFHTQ
How it was run: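 AR transcriptional activity is read as eGFP expression from a probasin-derived androgen-responsive promoter. Compound titrated 0-100 μM in the presence of 0.1 nM R1881; 35,000 cells/well.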

PSA = assay: Prostate Surface Antigen (PSA) assay, PSA excreted into the media; assay type: cell-based, human; settings: same plates as eGFP assay
Protocol: The evaluation of PSA excreted into the media was performed in parallel to the eGFP assay using the same plates (see above description). After the cells were incubated for 3 days 150 μl of the media was taken from each well, and added to 150 μl of PBS.

[1] = LN-ARR2PB-eGFP LNCaP cells, 0.1 nM R1881, 3 days, 0-100 μM compound, read-out: IC50 (eGFP)
[2] = Homo sapiens, 72 h, media after 3 days, read-out: IC50 (PSA)
[3] = LN-ARR2PBeGFP LNCaP cells, 0.1 nM R1881, 3 days incubation, read-out: eGFP IC50
[4] = Homo sapiens, 72 h, PSA excreted into media, 3 days incubation, read-out: PSA IC50
[5] = LN-ARR2PBeGFP LNCaP cells, 0.1 nM R1881, 3 days incubation
[6] = PSA excreted into media, 3 days incubation
[7] = LN-ARR2PB-eGFP LNCaP cells, 0.1 nM R1881, 3 days, 0-100 μM compound
[8] = PSA excreted into media, 3 days incubation, read-out: PSA IC50

SMILES	IC50 (androgen receptor (AR); [3]) [nM]	IC50 (PSA; [4]) [nM]	other results
Cc1cccc2c(-c3cnc4ccccc4c3)c[nH]c12 [13 654]	–	–	IC50 (androgen receptor (AR); [1]): 920 nM; IC50 (PSA; [2]): 160 nM
O=C(O)c1cccc2nc(-c3c[nH]c4c(F)cc(F)cc34)ccc12 [Compound 13666]	–	–	eGFP IC50 (androgen receptor (AR); [5]): Inactive; PSA IC50 (PSA; [6]): Inactive
Fc1cc(F)c2[nH]cc(-c3ccc4cccc(F)c4n3)c2c1F [Compound 13752]	370	260	–
Cc1cccc2c(C3=Nc4ccccc4CN3)c[nH]c12 [Compound 13604]	–	–	eGFP IC50 (androgen receptor (AR); [5]): Inactive; PSA IC50 (PSA; [6]): Inactive
Fc1cc2c(-c3ccc4cccnc4c3)c[nH]c2c(F)c1F [Compound 13770]	100	17	–
CC1(C)C(c2c[nH]c3c(O)cccc23)=Nc2ccccc21 [13 541]	–	–	IC50 (androgen receptor (AR); [1]): 500 nM; IC50 (PSA; [2]): 940 nM
Oc1cc2ccccc2cc1-c1nc2ccccc2[nH]1 [Compound 13687]	–	–	eGFP IC50 (androgen receptor (AR); [5]): Inactive; PSA IC50 (PSA; [6]): Inactive
CNC(=O)c1cccc2nc(-c3c[nH]c4c(C#N)cc(F)cc34)ccc12 [Compound 13731]	304	255	–
c1ccc2ncc(-c3n[nH]c4ccccc34)cc2c1 [13 684]	–	–	IC50 (androgen receptor (AR); [1]): 1400 nM; IC50 (PSA; [2]): 6610 nM
Cc1cccc2c(-c3ccc4c(Br)ccc(Br)c4n3)c[nH]c12 [13 679]	–	–	IC50 (eGFP) (androgen receptor (AR); [7]): IC50 (eGFP) = Inactive; IC50 (PSA) (PSA; media after 3 days): IC50 (PSA) = Inactive
Brc1ccc(-c2c[nH]c3ncccc23)cc1 [13 716]	–	–	IC50 (androgen receptor (AR); [1]): 67 nM; IC50 (PSA; [2]): 58 nM
Fc1cc2c(-c3ccc4c(Cl)cccc4n3)c[nH]c2c(F)c1F [Compound 13750]	–	–	eGFP IC50 (androgen receptor (AR); [5]): Inactive; PSA IC50 (PSA; [6]): Inactive
Cc1cccc2c(C3Nc4ccccc4C34CCCCC4)c[nH]c12 (centres unmarked) [13 549]	–	–	IC50 (androgen receptor (AR); [1]): 1700 nM; IC50 (PSA; [2]): 2570 nM
Cc1cccc2c(-c3ccc4c(Br)cccc4n3)c[nH]c12 [Compound 13678]	–	–	eGFP IC50 (androgen receptor (AR); [5]): Inactive; PSA IC50 (PSA; [6]): Inactive
Cc1cc(F)cc2c(-c3cnc4ccc(F)cc4n3)n[nH]c12 [Compound 13718]	370	110	–
Fc1ccc2nc(-c3c[nH]c4c(F)c(F)c(F)cc34)ccc2c1 [Compound 13776]	210	–	IC50 (PSA; [8]): 190 nM

SMILES	IC50 (androgen receptor (AR); [3]) [nM]	IC50 (PSA; [4]) [nM]	other results
c1ccc(-c2ccc(-c3c[nH]c4ncccc34)cc2)cc1 [13 715]	–	–	IC50 (androgen receptor (AR); [1]): 4080 nM; IC50 (PSA; [2]): 350 nM
Fc1cc(F)c2[nH]cc(-c3ccc4c(Cl)cccc4n3)c2c1 [Compound 13672]	–	–	eGFP IC50 (androgen receptor (AR); [5]): Inactive; PSA IC50 (PSA; [6]): Inactive
Cc1cccc2c(-c3ccc4c(Cl)cccc4n3)c[nH]c12 [Compound 13605]	–	–	eGFP IC50 (androgen receptor (AR); [5]): Inactive; PSA IC50 (PSA; [6]): Inactive
Cc1cccc2c(-c3ccc4c(Br)cccc4n3)c[nH]c12 [13 678]	–	–	IC50 (eGFP) (androgen receptor (AR); [7]): IC50 (eGFP) = Inactive; IC50 (PSA) (PSA; media after 3 days): IC50 (PSA) = Inactive
Cc1cccc2c(-c3cccnc3)c[nH]c12 [13 655]	–	–	IC50 (androgen receptor (AR); [1]): 1660 nM; IC50 (PSA; [2]): 610 nM
Fc1ccc2nc(-c3c[nH]c4c(F)c(F)c(F)cc34)cnc2c1 [Compound 13762]	479	429	–
Fc1cc2[nH]cc(-c3ccc4cccc(C(F)(F)F)c4n3)c2cc1F [Compound 13682]	890	990	–
Fc1cc(F)c2[nH]cc(-c3ccc4c(F)cccc4n3)c2c1 [Compound 13671]	–	–	eGFP IC50 (androgen receptor (AR); [5]): Inactive; PSA IC50 (PSA; [6]): Inactive
Cc1ccc2ccc(Cl)nc2c1 [Compound 13727]	–	–	eGFP IC50 (androgen receptor (AR); [5]): Inactive; PSA IC50 (PSA; [6]): Inactive
Cc1cccc2ccn(-c3ccc4ccc(F)cc4n3)c12 [Compound 13648]	–	–	eGFP IC50 (androgen receptor (AR); [5]): Inactive; PSA IC50 (PSA; [6]): Inactive
Oc1cc2ccccc2cc1-c1nc2ccccc2[nH]1 [13 687]	–	–	IC50 (eGFP) (androgen receptor (AR); [7]): IC50 (eGFP) = Inactive; IC50 (PSA) (PSA; media after 3 days): IC50 (PSA) = Inactive
Fc1cc(Cl)cc2cc[nH]c12 [Compound 13720]	–	–	eGFP IC50 (androgen receptor (AR); [5]): Inactive; PSA IC50 (PSA; [6]): Inactive
Cc1cc(F)cc2c(-c3ccc4cccc(F)c4n3)c[nH]c12 [Compound 13708]	290	290	–
Brc1cccc2c(-c3ccc4ccccc4n3)c[nH]c12 [Compound 13621]	20	8	–
Cc1cc(F)cc2c(-c3ccc4c(Cl)cccc4n3)c[nH]c12 [Compound 13709]	–	–	eGFP IC50 (androgen receptor (AR); [5]): Inactive; PSA IC50 (PSA; [6]): Inactive

The next lines start with results.

IC50 (androgen receptor (AR); [3]) [nM]	IC50 (PSA; [4]) [nM]	SMILES	other results
75	51	c1ccc2cc(-c3n[nH]c4ccccc34)ccc2c1 [Compound 13674]	–
800	610	c1ccc2ncc(-c3c[nH]c4ccccc34)cc2c1 [Compound 13628]	–
110	76	Clc1cccc(/N=N/c2c[nH]c3ccccc23)c1 [Compound 13226]	–
1100	1200	Cc1ccc(/N=N/c2c[nH]c3ccccc23)c(C)c1 [Compound 13423]	–
2850	2210	Cc1ccc2ccc(-c3c[nH]c4c(C)cccc34)nc2c1 [Compound 13658]	–
1200	2030	Fc1ccc(CSc2c[nH]c3ccccc23)cc1 [Compound 13410]	–
2800	3100	CCOC(=O)CN1c2ccccc2C(C)(C)C1c1c[nH]c2ccccc12 (centres unmarked) [Compound 13532]	–
300	303	Fc1cc2c(-c3ccc4cccc(Cl)c4n3)c[nH]c2c(F)c1F [Compound 13773]	–
1130	290	Brc1cccc2c(-c3cnc4ccccc4c3)c[nH]c12 [Compound 13653]	–
11500	1740	Fc1c(Cl)ccc2c(-c3ccc4ccccc4n3)c[nH]c12 [Compound 13613]	–
70	67	Fc1ccc2ccc(-c3c[nH]c4c(Cl)cccc34)nc2c1 [Compound 13694]	–
760	750	Cc1cccc2c(-c3ccc4cccnc4c3)c[nH]c12 [Compound 13744]	–
590	670	COc1cccc2c(-c3cc(C)c4ccccc4n3)c[nH]c12 [Compound 13554]	–
800	1250	c1ccc2c(c1)NC(c1c[nH]c3ccccc13)C21CCCCC1 (centres unmarked) [Compound 13534]	–
180	600	CC1(C)c2ccccc2NC1c1c[nH]c2ccccc12 (centres unmarked) [Compound 13506]	–
2700	1650	Cc1cc(Cl)cc2c(-c3ccc4ccccc4n3)c[nH]c12 [Compound 13626]	–
42	85	Cc1cccc2c(-c3ccc4ccccc4c3)c[nH]c12 [Compound 13591]	–
4900	1780	Oc1cc2ccccc2nc1-c1c[nH]c2cc(F)c(F)cc12 [Compound 13629]	–
700	806	CC1(C)C(c2c[nH]c3ncccc23)=Nc2ccccc21 [Compound 13537]	–
3810	919	Cc1cccc2c(-c3ccc(-c4ccccc4)cc3)c[nH]c12 [Compound 13733]	–
2110	–	CC1(C)c2ccccc2NC1c1c[nH]c2ncccc12 (centres unmarked) [Compound 13556]	IC50 (PSA; [8]): 2180 nM
144	48	Fc1ccc2c(-c3ccc4ccccc4n3)c[nH]c2c1 [Compound 13576]	–
1400	6610	c1ccc2ncc(-c3n[nH]c4ccccc34)cc2c1 [Compound 13684]	–
1900	1250	O=Nc1c(-c2c[nH]c3ccccc23)[nH]c2ccccc12 [Compound 13167]	–
